Results published in patent US20260256772A1, “BENZOTHIAZOLE COMPOUND AND USE THEREOF” (NANJING REJU THERAPEUTICS, INC., priority 2022, published 2026).

Tests used:
[1] = cited from earlier work
[2] = rats; cited from earlier work
[3] = Solubility test in pure water; format: physicochemical
Method: The following test protocol was used for the solubility tests of the compounds of the present invention:
1). The compounds to be tested were precisely weighed respectively, and formulated to a corresponding concentration (l mg/mL or 10 mg/mL) by adding a corresponding volume of pure water vortically shook for 1 minute every 3 minutes for 15 minutes to observe the dissolution, and then the dissolution was observed again after standing for 1 hour. 2). 0.2 mL of 1 mg/mL compound or sodium salt thereof was took, diluted to 0.1 mg/mL respectively by adding 1.8 mL water, vortically shook for 5 minutes to observe the dissolution, and then the dissolution was observed again after standing for 1 hour. 3). 1 mL of 1 mg/mL compound or sodium salt thereof was took, diluted to 0.5 mg/mL by adding 1 mL water, vortically shook for 5 minutes to observe the dissolution, and then the dissolution was observed again after standing for 1 hour.

platelets [4] = experiment: Platelet toxicity test in mice (platelet count); format: in vivo; details: mice, 0.5 mg/kg single intraperitoneal injection, blood at 6 hours, FIG. 1
Method: In this test example, C57 mice were chosen to detect the effect of the target compounds on platelets.
7 to 8 weeks old […] mice were randomly divided into vehicle group and compound group. The test compound (0.5 mg/kg) or blank vehicle was administrated via single intraperitoneal injection. Blood was collected from the retroorbital venous plexus of the mice at 6 hours, and placed in a blood routine tube containing anticoagulant EDTA-K2. After shaking gently, the blood physiological indicators were measured using a hematology analyzer, with the platelet count as the target parameter for this platelet toxicity test.

platelets [5] = details: under in vivo conditions; cited from earlier work
senescent cells = experiment: Senescent cell killing, CellTiter-Glo cell viability; format: cell-based, human, mouse; details: activity of killing senescent cells; cell type not specified
Excerpt: In this test example, human non-small cell lung cancer cell line (A549 cells), human embryonic lung fibroblast cell line (IMR90 cells), human retinal pigment epithelial cells (RPE cells), mouse chondrocytes, and mouse skin fibroblasts were selected. The above cells were induced by etoposide ([…]) to obtain their senescent cells. The effect of the target compounds on the viability of normal and senescent cells above was examined, thus assessing the specific killing effect of the compounds on senescent cells above.
Briefly, senescent and normal cells above were selected and plated separately (96-well plates). […] 2A to 2E.

Alzheimer's disease = Alzheimer's disease APP×PS1 transgenic mouse model; format: in vivo; details: intraperitoneal injection, 11 consecutive weeks, twice a week, FIG. 8
Method: In this test example, the efficacy of the compounds of the present disclosure was tested on Alzheimer's disease in an animal model of Alzheimer's disease. Briefly, a transgenic mouse model of APP×PS1 (purchased from Cyagen Biosciences) was selected, and the compound of the present disclosure was administered by intraperitoneal injection for 11 consecutive weeks, twice a week. Alterations in amyloid in the cerebral cortex of the mice were observed.

[6] = system: wet-age-related macular degeneration; experiment: CNV animal model of wet-age-related macular degeneration; format: in vivo, mice; details: intravitreal (IVT), FIG. 5
Method: In this test example, the efficacy of the compounds of the present disclosure was tested on wet-age-related macular degeneration in a CNV animal model.
Male mice were administered 0.5% probacaine hydrochloride (Alcon) for local anesthesia, and 1% tropicamide to dilate the pupils of the mice. Laser cauterization was performed using a laser photocoagulator (Novus Varia, LUMENIS) with a slit lamp delivery system. And artificially torn adherent glass coverslips were used as contact lenses. Bleeding spots caused by lasers were not included in the statistics. In each experimental group, six mice were analyzed with four impacts per eye to overcome inherent variability.

aging skin = experiment: Aging skin, naturally aging mouse model; format: in vivo, C57bl/6J mice; details: skin application twice a week for 6 consecutive weeks, FIG. 10
Method: In this test example, aged female C57bl/6J mice (22 months old) were used. The drug was administered by skin application twice a week for 6 consecutive weeks.

[7] = system: idiopathic pulmonary fibrosis; experiment: Idiopathic pulmonary fibrosis animal model (bleomycin); format: in vivo, SD rats; details: intraperitoneal (IP) 5 mg/kg, 3 consecutive weeks, FIG. 6; for pathology scores: H&E and Masson staining; for WBC: alveolar lavage fluid; for HYP: lung tissue
Method: In this test example, the efficacy of the compounds of the present disclosure was tested on idiopathic pulmonary fibrosis in an idiopathic pulmonary fibrosis animal model. Briefly, anesthetized 6-week-old SD rats were fixed on a foam board with medical tape. Firstly, the skin on the surface of the trachea was cut with surgical scissors to fully expose the trachea, and a 100-microlitre micro-syringe containing a certain volume of bleomycin (BLM 5 mg/kg) solution drawn based on the body weight of the rat was inserted into the trachea through the oral cavity to administer by slow bolus injection. After administration of the BLM solution, the foam plate was immediately rotated and shaken to distribute the BLM solution as evenly as possible in the lung tissue. Then the skin on the surface of the trachea was sutured with surgical sutures and about 0.5 to 1.0 mL of penicillin solution was dripped onto the epidermis to prevent infection of the surgical wound. After the 7th day of modelling, the compound solution of the present disclosure was administered via intraperitoneal (IP) injection (5 mg/kg) according to the weight of the rat for 3 consecutive weeks. Rats were euthanized by carbon dioxide on Day 28, the lung tissues were removed, the left alveolar lavage fluid was collected for white blood cell (WBC) counting, the right lung tissue portion was used for hydroxyproline (HYP) assay, and the remaining lung tissues were stained for pathology by H&E staining and Masson staining.

diabetic retinopathy = experiment: Mouse model of diabetic retinopathy (STZ), retinal Evans blue penetration assay; format: in vivo; details: intravitreal (IVT), 1 μL of 200 μM at 8 and 9 weeks after STZ, FIG. 4
Method: The efficacy of the compounds of the present disclosure was studied in a mouse model of diabetic retinopathy by multiple administrations of streptozotocin (STZ). C57BL/6J mice at 6 to 7 weeks were weighed and their baseline blood glucose was measured (Sino). STZ (Sigma-Alderich) was injected intraperitoneally into the mice at 55 mg/Kg for five consecutive days. Age-matched controls were injected with buffer only. Blood glucose was measured again one week after the last STZ injection. 1 μL of the test compound (200 μM, a suspension formulated in 0.015% polysorbate 80, 0.2% sodium phosphate, 0.75% sodium chloride, pH 7.2) was injected intravitreally into the STZ-treated diabetic C57BL/6J mice at 8 and 9 weeks after STZ administration. 10 weeks after STZ treatment, the retinal Evans blue penetration assay was performed.

osteoarthritis = experiment: Osteoarthritis animal model; format: in vivo, mice; details: intra-articular injection, FIG. 7
Method: In this test example, the efficacy of the compounds of the present disclosure was tested on osteoarthritis in an osteoarthritis animal model.
The osteoarthritis animal model was constructed by the following steps. The mice were anesthetized with isoflurane, and fixed. The hair on the right hind limb of the mice was shaved and the skin was disinfected with alcohol, and the skin of the joints was cut. Under an optical microscope, the inside of the right knee joint was incised longitudinally with a blade, without cutting the patellar ligament. The patellar ligament was pulled to one side with constant hemostasis by compression with sterile cotton swabs such that the joint cavity was fully exposed. Saline was added dropwise in time to avoid the drying up of the joint cavity. The excess muscle tissue was gently separated with a blunt forceps to expose the meniscus ligament. The anterior cruciate ligament was found in the depth of the joint cavity and cut with a micro scissor. Then the wound was disinfected with penicillin solution, the muscle was sutured with sterile needle and thread, and the skin tissue was finally sutured. The efficacy of the drug was determined by intra-articular injection administration. At the endpoint of the test, continued pain threshold of the plantar was detected, and the bone joints were stained with safranin fast green.

## Cc1c(-c2ccc(N3CCc4cccc(C(=O)Nc5nc6ccccc6s5)c4C3)nc2C(=O)O)cnn1CC12CC3CC(CC(C3)C1)C2 [Compound A-1331852]
[1]
  solubility in water: low solubility in water
[2]
  oral bioavailability: about 11%
[3]; formulated concentration 0.10 mg/mL in pure water
  During shaking: Visible solute particles
[3]; formulated concentration 1 mg/mL in pure water
  During shaking: Visible solute particles
Platelets [4]
  platelet toxicity (platelet count): severe platelet toxicity
Platelets [5]
  platelet toxicity: significant platelet toxicity
Senescent cells
  IC50: 0.2 to 1 µM

## Cc1c(-c2ccc(N3CCc4cccc(C(=O)Nc5nc6ccccc6s5)c4C3)nc2C(=O)N2CCN(CCO)CC2)cnn1CC12CC3CC(CC(C3)C1)C2 [RX002]
Alzheimer's disease
  Aβ42 pathogenic protein indicators: statistically significant improvements
[6]
  fluorescence intensity indicators: statistically significant improvements
Senescent cells
  IC50: < 0.2 µM
Aging skin
  epidermal thickness scores of the skins: statistically significant improvements
[7]
  pathology scores: statistically significant improvements
  WBC: statistically significant improvements
  HYP: statistically significant improvements
Diabetic retinopathy
  vascular permeability, choroidal vascular leakage: improved
  vascular permeability, retinal vascular leakage: improved
osteoarthritis
  pathology scores of safranin fast green staining: statistically significant improvements
  plantar mechanical pain threshold: statistically significant improvements

## Cc1c(-c2ccc(N3CCc4cccc(C(=O)Nc5nc6ccccc6s5)c4C3)nc2C(=O)NC2CCN(Cc3ccccc3)CC2)cnn1CC12CC3CC(CC(C3)C1)C2 [RX003]
Alzheimer's disease
  Aβ42 pathogenic protein indicators: statistically significant improvements
[6]
  fluorescence intensity indicators: statistically significant improvements
Aging skin
  epidermal thickness scores of the skins: statistically significant improvements
[7]
  pathology scores: statistically significant improvements
  WBC: statistically significant improvements
  HYP: statistically significant improvements
Diabetic retinopathy
  vascular permeability, choroidal vascular leakage: improved
  vascular permeability, retinal vascular leakage: improved
osteoarthritis
  pathology scores of safranin fast green staining: statistically significant improvements
  plantar mechanical pain threshold: statistically significant improvements
